# Assay results from publication PMC12596218 (Journal of Lipid Research, 2025).
# Values joined by “and” are separate entries in the source; they are usually repeats but may differ in a detail not shown here. Identical values can stand only once.
# What was measured:
# OATP2B1 = conditions: cited from earlier work
# NTCP [1] = conditions: cited from earlier work
# NTCP [2] = target: T1, NTCP (Homo sapiens, UniProt Q14973); assay: [3H]rosuvastatin transport inhibition assay in NTCP-HEK293 cells; assay type: cell-based; conditions: 1 μM [3H]rosuvastatin, 10 min; two independent experiments; read-out: IC50 NTCP [3H]rosuvastatin uptake
# T1 construct: stably transfected with the full open reading frames of human NTCP, ASBT, SOAT, OATP1B1, OATP1B3, OATP2B1, and murine Asbt (mAsbt); expressed in transfected cells; host or cells: HEK293 (Flp-In), stably transfected, tetracycline-induced
# T1 sequence (Q14973 1-349): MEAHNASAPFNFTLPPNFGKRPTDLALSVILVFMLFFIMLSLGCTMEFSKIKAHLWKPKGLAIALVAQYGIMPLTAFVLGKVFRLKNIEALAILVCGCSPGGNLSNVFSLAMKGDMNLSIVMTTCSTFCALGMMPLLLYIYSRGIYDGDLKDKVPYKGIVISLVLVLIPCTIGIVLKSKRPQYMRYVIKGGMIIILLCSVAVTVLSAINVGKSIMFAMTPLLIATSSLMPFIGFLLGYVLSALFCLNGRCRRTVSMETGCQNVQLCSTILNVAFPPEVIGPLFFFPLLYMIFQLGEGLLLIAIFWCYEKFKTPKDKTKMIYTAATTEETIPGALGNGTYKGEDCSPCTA
# From the text: Human embryonic kidney HEK293 cells, stably transfected with the full open reading frames of human NTCP, ASBT, SOAT, OATP1B1, OATP1B3, OATP2B1, and murine Asbt (mAsbt) were used as reported ([18], [20], [21], [22], [23]). The NTCP, ASBT, and mAsbt constructs were C-terminally tagged with the FLAG epitope, and the SOAT construct was C-terminally tagged with green fluorescent protein. Non-transfected Flp-In HEK293 cells (Thermo Fisher Scientific) served as the control. All cell lines were maintained at 37°C, 5% CO2 and 95% humidity in DMEM/F-12 medium (Thermo Fisher Scientific) supplemented with 10% fetal calf serum (Sigma-Aldrich), 4 mM L-glutamine (PAA) and penicillin/streptomycin (PAA). […]
# Cells were seeded onto poly-L-lysine-coated 96-well plates, induced with 1 μg/ml tetracycline, and grown to confluence over 72 h at 37°C. […] Then, the cell-associated radioactivity of the respective tritium-labeled substrate or ligand was quantified by liquid scintillation counting using MicroScint-20 scintillation cocktail (Revvity) in a Packard Microplate Scintillation Counter TopCount NXT (Packard Instrument Company). […] Finally, all net transport data were expressed as uptake or binding as % of control. […] From the specific uptake rates, Michaelis Menten Km values were calculated by non-linear regression analysis.
# murine Asbt (mAsbt) = target: T2, murine Asbt (mAsbt) (Mus musculus, UniProt P70172); assay: [3H]TC transport and inhibition assay in mAsbt-HEK293 cells; assay type: cell-based; conditions: for Inhibition curve/AUC of mAsbt compared to ASBT: 1 μM [3H]TC, 10 min, AUC combined from two experiments
# T2 construct: stably transfected with the full open reading frames of human NTCP, ASBT, SOAT, OATP1B1, OATP1B3, OATP2B1, and murine Asbt (mAsbt); expressed in transfected cells; host or cells: HEK293 (Flp-In), stably transfected, tetracycline-induced
# T2 sequence (P70172 1-348): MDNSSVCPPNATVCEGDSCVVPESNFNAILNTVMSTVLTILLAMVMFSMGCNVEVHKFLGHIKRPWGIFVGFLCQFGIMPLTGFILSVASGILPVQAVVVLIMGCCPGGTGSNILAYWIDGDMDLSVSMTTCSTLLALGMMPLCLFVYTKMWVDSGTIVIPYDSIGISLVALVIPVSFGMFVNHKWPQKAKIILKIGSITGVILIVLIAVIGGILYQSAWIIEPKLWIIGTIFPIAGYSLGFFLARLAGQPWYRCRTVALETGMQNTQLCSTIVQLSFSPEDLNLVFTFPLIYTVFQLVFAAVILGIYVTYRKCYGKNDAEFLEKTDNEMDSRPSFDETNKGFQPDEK
# From the text: Human embryonic kidney HEK293 cells, stably transfected with the full open reading frames of human NTCP, ASBT, SOAT, OATP1B1, OATP1B3, OATP2B1, and murine Asbt (mAsbt) were used as reported ([18], [20], [21], [22], [23]). The NTCP, ASBT, and mAsbt constructs were C-terminally tagged with the FLAG epitope, and the SOAT construct was C-terminally tagged with green fluorescent protein. Non-transfected Flp-In HEK293 cells (Thermo Fisher Scientific) served as the control. All cell lines were maintained at 37°C, 5% CO2 and 95% humidity in DMEM/F-12 medium (Thermo Fisher Scientific) supplemented with 10% fetal calf serum (Sigma-Aldrich), 4 mM L-glutamine (PAA) and penicillin/streptomycin (PAA). Expression of the respective carrier protein was induced by tetracycline treatment at 1 μg/ml (Carl Roth GmbH + Co. KG).
# Cells were seeded onto poly-L-lysine-coated 96-well plates, induced with 1 μg/ml tetracycline, and grown to confluence over 72 h at 37°C. Then, cells were washed with tempered (37°C) phosphate-buffered saline (PBS, containing 137.0 mM NaCl, 2.7 mM KCl, 1.5 mM KH2PO4, and 7.3 mM Na2HPO4, at pH 7.4) and preincubated with 80 μl sodium transport buffer (STB, containing 142.9 mM NaCl, 4.7 mM KCl, 1.2 mM MgSO4, 1.2 mM KH2PO4, 1.8 mM CaCl2, and 20.0 mM HEPES, at pH 7.4) for 5 min at 37°C. For inhibition studies, the medium was replaced by 80 μl STB containing the respective inhibitor or solvent alone and cells were further incubated for 5 min at 37°C. Transport experiments were started by adding 20 μl of a 5-fold concentrated substrate solution (solved in STB). For transport experiments under sodium-free conditions the same buffer composition was used as for STB, but sodium chloride was substituted with equimolar concentrations of choline chloride as previously reported ([20], [24]). Transport experiments were stopped by washing twice with ice-cold PBS and the plates were kept cool on ice until adding the lysis buffer [1% sodium dodecyl sulfate (SDS) and 1 N NaOH]. Then, the cell-associated radioactivity of the respective tritium-labeled substrate or ligand was quantified by liquid scintillation counting using MicroScint-20 scintillation cocktail (Revvity) in a Packard Microplate Scintillation Counter TopCount NXT (Packard Instrument Company). For IC50 transport inhibition measurements, the mean uptake values measured in non-carrier-expressing HEK293 control cells were defined as 0% uptake control and were subtracted from all other values. Values from cells without inhibitor and solvent alone were set to 100%. Finally, all net transport data were expressed as uptake or binding as % of control. […] From the specific uptake rates, Michaelis Menten Km values were calculated by non-linear regression analysis.
# ASBT = target: T3, ASBT (Homo sapiens, UniProt Q12908); assay: Transport inhibition and recovery assay (inhibitor washout) in ASBT-HEK293 cells; assay type: cell-based; conditions: 3 μM inhibitor, 5 min preincubation, 10 min uptake of 1 μM [3H]TC
# T3 construct: stably transfected with the full open reading frames of human NTCP, ASBT, SOAT, OATP1B1, OATP1B3, OATP2B1, and murine Asbt (mAsbt); expressed in transfected cells; host or cells: HEK293 (Flp-In), stably transfected, tetracycline-induced
# T3 sequence (Q12908 1-348): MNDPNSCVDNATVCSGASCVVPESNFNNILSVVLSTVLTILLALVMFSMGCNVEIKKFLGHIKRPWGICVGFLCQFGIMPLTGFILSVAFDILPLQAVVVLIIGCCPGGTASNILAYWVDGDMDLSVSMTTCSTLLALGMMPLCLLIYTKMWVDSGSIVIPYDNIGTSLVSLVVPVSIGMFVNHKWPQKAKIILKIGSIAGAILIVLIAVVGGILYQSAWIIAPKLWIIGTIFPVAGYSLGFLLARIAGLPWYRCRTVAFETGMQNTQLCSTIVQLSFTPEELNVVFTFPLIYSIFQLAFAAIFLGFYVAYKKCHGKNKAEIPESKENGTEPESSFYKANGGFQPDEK
smiles,measurement,setting,value
CCCCC1(CCCC)CS(=O)(=O)c2ccc(N(C)C)cc2[C@@H](c2ccc(OCc3ccc(C[N+]45CCN(CC4)CC5)cc3)cc2)[C@H]1O [maralixibat],OATP2B1 inhibition (in words),"OATP2B1; in vitro studies, ref EMA EPAR Product Information Maralixibat","Maralixibat is an OATP2B1 inhibitor based on in vitro studies. No potential for clinically relevant drug-drug interactions (DDI), but theoretical risk of interaction with substrates of this carrier."
same,IC50,"OATP2B1; in vitro, ref FDA NDA 214662 Livmarli, read-out: IC50 OATP2B1 inhibition",1.02 µM
same,Inhibition of NTCP,"NTCP [1]; 50 μM, NTCP expressed in CHO cells, ref FDA NDA 214662 Livmarli",Maralixibat at 50 μM produced 5% inhibition of NTCP expressed in CHO cells.
CCCCC1(CCCC)CN(c2ccccc2)c2cc(SC)c(OCC(=O)N[C@@H](C(=O)N[C@@H](CC)C(=O)O)c3ccc(O)cc3)cc2S(=O)(=O)N1 [odevixibat],IC50,NTCP [2],6.6 µM and 5.4 µM
same,Inhibition curve/AUC of mAsbt compared to ASBT,murine Asbt (mAsbt),much more potent inhibitor of the human ASBT protein compared to mAsbt
CCCC[C@]1(CC)CS(=O)(=O)c2cc(CNC(CC(=O)O)CC(=O)O)c(OC)cc2[C@@H](c2ccccc2)N1 [linerixibat],Substrate of OATP2B1,OATP2B1,is not a substrate
same,Inhibition curve/AUC of mAsbt compared to ASBT,murine Asbt (mAsbt),lower AUC values were determined for mAsbt compared to ASBT but without reaching the level of significance
same,Transport inhibition at highest substrate concentration,murine Asbt (mAsbt); 500 μM [3H]TC,full transport inhibition
same,IC50 values at increasing substrate concentrations (in words),murine Asbt (mAsbt); [3H]TC 0.3-500 μM,remained quite stable
same,ASBT inhibition with inhibitor present during uptake (inhibitor + [3H]TC),ASBT,full ASBT inhibition
CCCCC1(CCCC)CN(c2ccccc2)c2cc(SC)c(OCC(=O)N[C@@H](C(=O)NCC(=O)O)c3ccccc3)cc2S(=O)(=O)C1 [elobixibat],IC50,NTCP [2],19.2 µM and 11.9 µM
same,IC50,"NTCP [1]; ref PMDA Goofice Report on the Deliberation Results, read-out: IC50 NTCP inhibition",0.24 µM
